This is an account of results in patent USRE43712E1, “Methods for assaying for antidepressant therapy markers” (The Board of Trustees of the Uniersity of Illinois, priority 2000, dated 2012).

For assay [1], the system named is Gsα. The assay is described as follows: Cellular localization of Gsα in C6-2B cells, immunofluorescence laser scanning confocal microscopy. The assay is classed as cell-based.
For assay [2], the system named is Giα. The assay is described as follows: Detergent extraction of Giα from C6-2B glioma membranes. The assay is classed as cell-based. The settings on record: C6-2B cells, 10 μM, 3 days; FIG. 4. The procedure:
Membrane proteins were extracted sequentially from C6-2B or rat synaptic membranes as described [Yan et al., J. Neurochem., 66:1489-1495; 1996]. These membranes were stirred on ice in HEPES (15 mM, pH 7.4) containing 1% Triton X-100 for 60 min followed by centrifugation at 100,000 g for 60 min at 4° C. The supernatant was reserved (Triton X-100 extract), and the resulting pellet was resuspended in Tris (15 mM, pH 7.4) containing 1.4% Triton X-114 and 150 mM NaCl. The solution was stirred for 60 min at 4° C. and centrifuged for 30 min at 100,000 g in the cold. The supernatant was saved (Triton X-114 extract). These supernatants and remaining pellet (remainder) were subjected to sodium dodecyl sulfate (SDS)-polyacrylamide gel electophoresis (PAGE) using 10% gels. […]
Rat cortex membrane, C6-2B cell membranes, or Triton extracts of each membrane preparation were subjected to SDS-PAGE followed by electrotransfer to polyvinylidene difluoride (PVDF) membrane. […] Immunoreactivity was detected with an enhanced chemiluminescence (ECL) western blot detection system (Amersham) in accord with the manufacturer's instructions. The developed autoradiographs were analyzed by densitometry.
Experiments were conducted (as described in Example 1) to ascertain the effect of antidepressant therapy on the mobility of Giα from C6-2B glioma cells. […] Immunoreactivity was detected with an ECL western blot detection system.

Assay [3] concerns Gsα. The assay is described as follows: Detergent extraction of Gsα from rat synaptic membrane after chronic antidepressant treatment. Conditions: short-term treatment (1-day treatment of cells or 1-week treatment of rats). The assay is classed as in vivo.

Turning to `CNCCCN1c2ccccc2CCc2ccccc21` [Desipramine, desipramine], in assay [1] (3 μM for five days), the “Intense Gsα staining at the process tips” value is “do not”. Further, in assay [1] (acute treatment, one day, 10 μM), the “Number of cells lacking Gsα in the process tips versus control” value was “not significantly different from the control”.

Turning to `CNCCC(Oc1ccc(C(F)(F)F)cc1)c1ccccc1` (stereo not shown) [Fluoxetine, fluoxetine], the “Migration of Giα to a less hydrophobic membrane fraction” value in assay [2] is “did not migrate to a less hydrophobic membrane fraction”. In assay [3], the “Effect of short-term treatment on the parameters examined” value is “without effect”.
